{
  "source": "patent US20180318383A1",
  "about": "“PEPTIDE HAVING NEURONAL LOSS PREVENTION AND REGENERATION EFFECTS, AND COMPOSITION CONTAINING SAME” (GEMVAX & KAEL CO., LTD., priority 2015, published 2018)",
  "key": {"[1]": {"system": "primary cultured cortical nerve", "assay": "Intracellular signaling proteins in damaged neurons", "format": "cell-based, rat", "conditions": "Aβ25-35 + PEP1", "experimental": "A primary cultured cortical nerve was obtained from the cerebral cortex of the fetal rat on day 16 of the embryonic period. Briefly, the brain was rapidly removed from the rat, and placed in a petri dish containing cold phosphate-buffered physiological saline (HBSS). Single cells were isolated from the cerebral cortex, and added into a previously poly-L-lysine-coated Corning dish with a diameter of 100 mm, or a glass coverslip was placed in a 6- or 24-well plate. The cultured cells were cultured in DMEM (high glucose).\nTwo days after the cells were added, non-neuronal cells were removed through treatment of 5 μM cytosine arabinoside for 24 hours. Only the mature culture (7 days in the test tube) was used in this experiment. Approximately 79.7% of a group of neurons was obtained from the neurons of a primary cortex. […]"}, "GalC": {"system": "GalC", "assay": "GalC expression in 3XTg-AD mice (western blotting, immunostaining)", "format": "in vivo", "conditions": "hippocampus and whole brain; s.c. three times a week for two months; vs control and Donepezil, same amount", "experimental": "To test the efficacy of PEP1 on AD, AD transgenic mice (3XTg-AD) were purchased from Jackson Laboratory. Genetic characteristics of the transgenic mice are as follows: B6; 129-Psen1tm1Mpm Tg(APPSwe, tauP301L)1Lfa/Mmjax. […] One week after mice were confirmed as pregnant, new mice were delivered and weaned for 3 weeks. Two weeks later, mature mice were obtained.\nDuring the preliminary breeding and the entire period of the experiment, a temperature was maintained at 23±2° C. and a relative humidity was maintained at 60±10%, and then the mice were raised under a 12-hour dark/light cycle. Experimental animals were divided into five groups, and each group included 10 animals. The divided experimental groups are as follows. […]\nThe PEP1, physiological saline, donepezil and scramble peptide were subcutaneously injected at each concentration three times a week for two months from the age of 12 months, and then two months after the injection, cognitive/memory behavior tests (passive avoidance test and Y maze test) were performed to examine a degree of improvement in cognitive function and memory function. After the brain was extracted to separate the hippocampus, the amounts of amyloid beta in the hippocampus and the whole brain, and the amounts of an amyloid beta oligomer and NFT generated by tau hyperphosphorylation were determined by western blotting and immunostaining. […]"}},
  "data": [
    {"sequence": "EARPALLTSRLRFIPK (homo sapiens) [PEP1, hTERT-derived peptide consisting of 16 amino acids, telomerase location [611-626]]", "values": [
      {"measurement": "apoptosis-associated proteins", "setting": "[1]", "result": "a low amount"},
      {"measurement": "proliferation-associated proteins", "setting": "[1]", "result": "a large amount"},
      {"measurement": "Galc", "setting": "GalC", "result": "increased"}
    ]}
  ]
}
